Target: human NaV subtype, like NaV 1.7 (Homo sapiens, UniProt Q15858)
Experiment: E-VIPR optical membrane potential assay with electrical stimulation
Type: cell-based
Conditions: active against one or more sodium channels; assay and NaV subtype not specified for Table 3; read-out: IC50 Binned Activity Data
Source text: Assays for Detecting and Measuring NaV Inhibition Properties of Compound E-VIPR Optical Membrane Potential Assay Method with Electrical Stimulation
Sodium channels are voltage-dependent proteins that can be activated by inducing membrane voltage changes by applying electric fields. The electrical stimulation instrument and methods of use are described in Ion Channel Assay Methods PCT/US01/21652, herein incorporated by reference and are referred to as E-VIPR. The instrument comprises a microtiter plate handler, an optical system for exciting the coumarin dye while simultaneously recording the coumarin and oxonol emissions, a waveform generator, a current- or voltage-controlled amplifier, and a device for inserting electrodes in well. Under integrated computer control, this instrument passes user-programmed electrical stimulus protocols to cells within the wells of the microtiter plate.
24 hours before the assay on E-VIPR, HEK cells expressing human NaV subtype, like NaV 1.7, are seeded in 384-well poly-lysine coated plates at 15,000-20,000 cells per well. Other subtypes are performed in an analogous mode in a cell line expressing the NaV of interest. HEK cells are grown in media (exact composition is specific to each cell type and NaV subtype) supplemented with 10% FBS (Fetal Bovine Serum, qualified; GibcoBRL #16140-071) and 1% Pen-Strep (Penicillin-Streptomycin; GibcoBRL #15140-122). Cells are grown in vented cap flasks, in 90% humidity and 10% CO2, to 100% confluence. They are usually split by trypsinization 1:10 or 1:20, depending on scheduling needs, and grown for 2-3 days before the next split.
100 mg/mL Pluronic F-127 (Sigma #P2443), in dry DMSO
Compound Plates: 384-well round bottom plate, e.g. Corning 384-well Polypropylene Round Bottom #3656
Cell Plates: 384-well tissue culture treated plate, e.g. Greiner #781091-1B
Bath1 buffer. Glucose 10 mM (1.8 g/L), Magnesium Chloride (Anhydrous), 1 mM (0.095 g/L), Calcium Chloride, 2 mM (0.222 g/L), HEPES 10 mM (2.38 g/L), Potassium Chloride, 4.5 mM (0.335 g/L), Sodium Chloride 160 mM (9.35 g/L).
Hexyl Dye Solution: Bath1 Buffer+0.5% β-cyclodextrin (make this prior to use, Sigma #C4767), 8 μM CC2-DMPE+2.5 μM DiSBAC6(3). To make the solution Add volume of 10% Pluronic F127 stock equal to volumes of CC2-DMPE+DiSBAC6(3). The order of preparation is first mix Pluronic and CC2-DMPE, then add DiSBAC6(3) while vortexing, then add Bath1+β-Cyclodextrin.
1) Pre-spot compounds (in neat DMSO) into compound plates. Vehicle control (neat DMSO), the positive control (20 mM DMSO stock tetracaine, 125 μM final in assay) and test compounds are added to each well at 160× desired final concentration in neat DMSO. Final compound plate volume will be 80 μL (80-fold intermediate dilution from 1 μL DMSO spot; 160-fold final dilution after transfer to cell plate). Final DMSO concentration for all wells in assay is 0.625%.
2) Prepare Hexyl Dye Solution.
3) Prepare cell plates. On the day of the assay, medium is aspirated and cells are washed three times with 100 μL of Bath1 Solution, maintaining 25 μL residual volume in each well.
4) Dispense 25 μL per well of Hexyl Dye Solution into cell plates. Incubate for 20-35 minutes at room temp or ambient conditions.
5) Dispense 80 μL per well of Bath1 into compound plates. Acid Yellow-17 (1 mM) is added and Potassium Chloride can be altered from 4.5 to 20 mM depending on the NaV subtype and assay sensitivity.
6) Wash cell plates three times with 100 μL per well of Bath1, leaving 25 μL of residual volume. Then transfer 25 uL per well from Compound Plates to Cell Plates. Incubate for 20-35 minutes at room temp/ambient condition
7) Read Plate on E-VIPR. Use the current-controlled amplifier to deliver stimulation wave pulses for typically 9 seconds and a scan rate of 400 Hz. A pre-stimulus recording is performed for 0.5 seconds to obtain the un-stimulated intensities baseline. […]

Sequence of human NaV subtype, like NaV 1.7 (Q15858 whole entry): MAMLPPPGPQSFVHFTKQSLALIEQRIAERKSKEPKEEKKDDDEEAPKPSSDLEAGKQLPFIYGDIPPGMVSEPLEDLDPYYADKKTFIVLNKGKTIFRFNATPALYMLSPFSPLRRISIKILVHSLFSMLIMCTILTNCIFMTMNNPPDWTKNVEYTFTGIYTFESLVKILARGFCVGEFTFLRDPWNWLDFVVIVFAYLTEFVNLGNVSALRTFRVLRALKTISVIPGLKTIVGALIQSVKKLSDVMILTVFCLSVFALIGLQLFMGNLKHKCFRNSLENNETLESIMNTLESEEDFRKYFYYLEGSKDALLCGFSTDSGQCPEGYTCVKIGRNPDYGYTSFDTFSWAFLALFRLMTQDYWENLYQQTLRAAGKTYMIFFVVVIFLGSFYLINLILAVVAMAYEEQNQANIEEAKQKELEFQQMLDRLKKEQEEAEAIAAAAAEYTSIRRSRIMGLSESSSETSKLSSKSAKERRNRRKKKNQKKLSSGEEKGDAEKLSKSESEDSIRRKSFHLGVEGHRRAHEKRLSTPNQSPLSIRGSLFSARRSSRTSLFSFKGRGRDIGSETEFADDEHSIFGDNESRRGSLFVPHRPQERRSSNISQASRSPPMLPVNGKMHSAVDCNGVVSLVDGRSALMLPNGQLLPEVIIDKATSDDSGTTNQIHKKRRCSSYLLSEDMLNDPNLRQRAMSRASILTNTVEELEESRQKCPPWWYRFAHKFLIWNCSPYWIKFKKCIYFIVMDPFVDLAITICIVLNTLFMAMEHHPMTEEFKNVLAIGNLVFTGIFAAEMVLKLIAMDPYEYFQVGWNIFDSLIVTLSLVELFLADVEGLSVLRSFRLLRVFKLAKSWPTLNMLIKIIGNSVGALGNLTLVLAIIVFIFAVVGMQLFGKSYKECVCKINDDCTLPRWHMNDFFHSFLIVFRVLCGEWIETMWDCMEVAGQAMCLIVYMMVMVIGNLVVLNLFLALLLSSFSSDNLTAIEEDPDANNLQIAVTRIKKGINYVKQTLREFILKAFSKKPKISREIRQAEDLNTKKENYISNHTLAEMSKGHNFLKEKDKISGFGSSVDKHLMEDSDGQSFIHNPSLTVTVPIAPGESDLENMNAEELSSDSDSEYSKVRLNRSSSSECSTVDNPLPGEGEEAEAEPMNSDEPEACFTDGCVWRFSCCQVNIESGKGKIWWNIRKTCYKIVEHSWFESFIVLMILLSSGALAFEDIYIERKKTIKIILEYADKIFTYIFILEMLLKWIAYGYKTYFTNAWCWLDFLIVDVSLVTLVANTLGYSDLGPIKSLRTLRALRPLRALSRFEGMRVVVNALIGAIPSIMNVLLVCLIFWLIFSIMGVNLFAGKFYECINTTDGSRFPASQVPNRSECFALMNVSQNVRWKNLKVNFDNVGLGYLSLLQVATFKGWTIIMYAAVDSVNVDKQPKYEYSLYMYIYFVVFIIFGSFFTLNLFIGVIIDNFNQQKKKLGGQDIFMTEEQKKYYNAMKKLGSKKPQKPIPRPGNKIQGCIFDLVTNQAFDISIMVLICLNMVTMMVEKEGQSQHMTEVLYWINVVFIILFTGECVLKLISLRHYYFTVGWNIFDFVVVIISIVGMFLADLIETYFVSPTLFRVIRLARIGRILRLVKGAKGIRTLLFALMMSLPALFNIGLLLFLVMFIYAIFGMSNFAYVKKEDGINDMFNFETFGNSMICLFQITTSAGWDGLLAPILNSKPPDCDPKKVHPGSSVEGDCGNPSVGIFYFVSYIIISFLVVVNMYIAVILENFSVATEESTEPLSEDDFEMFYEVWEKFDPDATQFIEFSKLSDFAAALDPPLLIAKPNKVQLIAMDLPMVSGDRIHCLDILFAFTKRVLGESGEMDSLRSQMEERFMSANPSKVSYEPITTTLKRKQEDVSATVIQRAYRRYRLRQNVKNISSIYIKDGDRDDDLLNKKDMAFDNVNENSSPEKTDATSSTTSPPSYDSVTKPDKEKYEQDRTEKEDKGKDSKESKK

Structure (SMILES) | IC50 [µM]
CC(C)O[C@@H]1CC2(CCN(C(=O)c3ccc(NC4(C)COC4)cn3)CC2)Oc2ccc(F)cc21 [Compound 1] | ≤ 2
COc1cc(C(=O)N2CCC3(CC2)CC(COC(C)C)c2ccccc2O3)ccc1OC(C)C (centres unmarked) [Compound 2] | ≤ 2
COc1cc(C(=O)N2CCC3(CC2)CC(Oc2cncc(C#N)c2)c2ccccc2O3)ccc1OC(C)C (centres unmarked) [Compound 3] | ≤ 2
CCS(=O)(=O)c1ccc(C(=O)N2CCC3(CC2)C[C@@H](OC(C)C)c2cc(F)cc(F)c2O3)cc1C [Compound 4] | 2 to 5
CCO[C@@H]1CC2(CCN(C(=O)c3ccc(S(=O)(=O)CC(C)C)cc3)CC2)Oc2ccc(F)cc21 [Compound 5] | ≤ 2
COc1cc(C(=O)N2CCC3(CC2)CC(C(C)OC)c2ccccc2O3)ccc1OC(C)C (centres unmarked) [Compound 6] | ≤ 2
CC(C)O[C@@H]1CC2(CCN(C(=O)c3ccc(S(=O)(=O)C(F)(F)F)cc3)CC2)Oc2ccc(F)cc21 [Compound 7] | ≤ 2
CC(C)Oc1ccc(C(=O)N2CCC3(CC2)C[C@@H](OC(C)C)c2cc(F)ccc2O3)cc1CN [Compound 8] | > 5
CCS(=O)(=O)c1ccc(C(=O)N2CCC3(CC2)C[C@@H](OC(C)C)c2cc(F)ccc2O3)cc1C [Compound 9] | ≤ 2
COc1cc(C(=O)N2CCC3(CC2)C[C@@H](OC(C)C)c2cc(F)ccc2O3)ccc1C(C)(C)O [Compound 10] | ≤ 2
Cc1cc(S(=O)(=O)C(C)C)ccc1C(=O)N1CCC2(CC1)C[C@@H](OC(C)C)c1cc(F)ccc1O2 [Compound 11] | ≤ 2
CCOC1CC2(CCN(C(=O)c3ccc(OC(C)C)c(OC)c3)CC2)Oc2ccccc21 (centres unmarked) [Compound 12] | ≤ 2
Cc1cc(C(=O)N2CCC3(CC2)C[C@@H](OC(C)C)c2cc(F)ccc2O3)ccc1S(=O)(=O)C(C)C [Compound 13] | ≤ 2
CC(C)O[C@@H]1CC2(CCN(C(=O)c3cccc4cccnc34)CC2)Oc2ccccc21 [Compound 14] | ≤ 2
CNCc1cc(C(=O)N2CCC3(CC2)C[C@@H](OC(C)C)c2cc(F)ccc2O3)ccc1OC(C)C [Compound 15] | > 5
CC(C)O[C@@H]1CC2(CCN(C(=O)c3ccc(N(C)C(C)C)cn3)CC2)Oc2ccc(F)cc21 [Compound 16] | ≤ 2
CC(C)O[C@@H]1CC2(CCN(C(=O)c3ccc(N4CCN(S(C)(=O)=O)CC4)cn3)CC2)Oc2ccc(F)cc21 [Compound 17] | ≤ 2
COc1ccc(C(=O)N2CCC3(CC2)CC(c2ccccc2)c2ccccc2O3)cc1OC (centres unmarked) [Compound 18] | ≤ 2
CC(C)O[C@@H]1CC2(CCN(C(=O)c3ccc(NS(=O)(=O)C(C)C)cc3)CC2)Oc2ccc(F)cc21 [Compound 19] | ≤ 2
COc1ccc(C(=O)N2CCC3(CC2)C[C@@H](OC(C)C)c2ccccc2O3)cc1C [Compound 20] | ≤ 2
C=CCOC1CC2(CCN(C(=O)c3ccc(OC(C)C)c(OC)c3)CC2)Oc2ccccc21 (centres unmarked) [Compound 21] | ≤ 2
CC(C)O[C@@H]1CC2(CCN(C(=O)c3ccc(S(=O)(=O)C(C)C)c(C#N)c3)CC2)Oc2ccc(F)cc21 [Compound 22] | ≤ 2
COc1cc(C(=O)N2CCC3(CC2)CC(COCC(F)F)c2ccccc2O3)ccc1OC(C)C (centres unmarked) [Compound 23] | ≤ 2
CCOC1CC2(CCN(C(=O)c3ccc(OC(C)C)c(OC)c3)CC2)S(=O)(=O)c2ccccc21 (centres unmarked) [Compound 24] | ≤ 2
COc1cc(C(=O)N2CCC3(CC2)CC(OC(C)C)c2ccc(F)cc2O3)ccc1OC(C)C (centres unmarked) [Compound 25] | ≤ 2
Cc1cc(C(=O)N2CCC3(CC2)C[C@H](OC(C)C)c2ccccc2O3)ccc1C(C)(C)O [Compound 26] | ≤ 2
Cc1cc(C(=O)N2CCC3(CC2)C[C@@H](OC(C)C)c2cc(F)cc(F)c2O3)ccc1S(=O)(=O)C(C)C [Compound 27] | ≤ 2

Structure (SMILES) | IC50 [µM]
CC(C)O[C@@H]1CC2(CCN(C(=O)c3ccc4[nH]ncc4c3)CC2)Oc2ccccc21 [Compound 28] | 2 to 5
CC(C)OC1CC2(CCN(C(=O)c3ccc(S(=O)(=O)C(C)C)c(C#N)c3)CC2)Oc2ccc(F)cc21 (centres unmarked) [Compound 29] | ≤ 2
CC(C)OC1CC2(CCN(C(=O)c3ccc(S(=O)(=O)CC4CC4)cn3)CC2)Oc2ccc(F)cc21 (centres unmarked) [Compound 30] | 2 to 5
CC(C)O[C@@H]1CC2(CCN(C(=O)c3ccc(C(C)(C)O)c(F)c3)CC2)Oc2ccccc21 [Compound 31] | ≤ 2
CCO[C@@H]1CC2(CCN(C(=O)c3ccc(S(=O)(=O)C(C)C)cc3)CC2)Oc2ccc(F)cc21 [Compound 32] | 2 to 5
COc1cc(C(=O)N2CCC3(CC2)CC(OC(C)C)c2nn(C(C)(C)C)cc2O3)ccc1OC(C)C (centres unmarked) [Compound 34] | ≤ 2
CC(C)OCC1CC2(CCN(C(=O)c3ccc(C(C)(C)O)cc3)CC2)Oc2ccccc21 (centres unmarked) [Compound 35] | ≤ 2
Cc1cc(C(=O)N2CCC3(CC2)C[C@@H](OC(C)C)c2ccccc2O3)ccc1O [Compound 36] | ≤ 2
Cc1cc(C(=O)N2CCC3(CC2)CC(OC(C)C)c2ccncc2O3)ccc1OC(C)C (centres unmarked) [Compound 37] | ≤ 2
CCN(CC)CCOC1CC2(CCN(C(=O)c3ccc(OC(C)C)c(OC)c3)CC2)Oc2ccccc21 (centres unmarked) [Compound 38] | > 5
CC(C)S(=O)(=O)c1ccc(C(=O)N2CCC3(CCc4ccccc4O3)CC2)cc1 [Compound 39] | > 5
COc1ccccc1C(=O)N1CCC2(CC1)CC(C(C)C)c1ccccc1O2 (centres unmarked) [Compound 40] | > 5
COC1CCN(c2ccc(C(=O)N3CCC4(CC3)C[C@@H](OC(C)C)c3cc(F)ccc3O4)nc2)CC1 [Compound 41] | ≤ 2
CC(C)Oc1ccc(C(=O)N2CCC3(CC2)C[C@H](OC(C)C)c2ccccc2O3)cc1CO [Compound 42] | ≤ 2
Cc1cc(C(=O)N2CCC3(CC2)CC(OC(C)C)c2cc(C#N)ccc2O3)ccc1C(C)(C)O (centres unmarked) [Compound 43] | ≤ 2
COCOC1=Cc2ccccc2OC12CCN(C(=O)c1ccc(OC(C)C)c(OC)c1)CC2 [Compound 44] | ≤ 2
Cc1cc(C(=O)N2CCC3(CC2)CC(OC(C)C)c2cccnc2O3)ccc1OC(C)C (centres unmarked) [Compound 45] | ≤ 2
CC(C)Nc1ccc(C(=O)N2CCC3(CC2)C[C@@H](OC(C)C)c2cc(F)ccc2O3)nc1 [Compound 46] | ≤ 2
COc1cc(C(=O)N2CCC3(CC2)CC(NC(C)C)c2ccccc2O3)ccc1OC(C)C (centres unmarked) [Compound 47] | > 5
CC(C)O[C@@H]1CC2(CCN(C(=O)c3ccc(C(C)(C)O)c(F)c3)CC2)Oc2ccc(F)cc21 [Compound 48] | ≤ 2
CC(C)O[C@@H]1CC2(CCN(C(=O)c3ccc(C4(O)CCCC4)cc3)CC2)Oc2ccc(F)cc21 [Compound 49] | ≤ 2
CCc1ccc(C(=O)N2CCC3(CC2)C[C@@H](OC(C)C)c2ccccc2O3)cc1OC [Compound 50] | ≤ 2
COc1cc(C(=O)N2CCC3(CC2)Oc2ccccc2CC3OC(C)C)ccc1OC(C)C (centres unmarked) [Compound 51] | ≤ 2
CC(C)O[C@@H]1CC2(CCN(C(=O)c3ccc(N4CCOCC4)cn3)CC2)Oc2ccc(F)cc21 [Compound 52] | ≤ 2
CC(C)O[C@@H]1CC2(CCN(C(=O)c3ccc(SC(C)C)cc3)CC2)Oc2ccc(F)cc21 [Compound 53] | ≤ 2
CC(C)O[C@@H]1CC2(CCN(C(=O)c3ccc(N4CCCCC4C)cn3)CC2)Oc2ccc(F)cc21 (some centres unmarked) [Compound 54] | ≤ 2

— US10385070B2, “Chroman-spirocyclic piperidine amides as modulators of ion channels” (VERTEX PHARMACEUTICALS INCORPORATED, priority 2011, dated 2019)
